{"source": "patent US20250186448A1", "about": "(Mezzion Pharma Co., Ltd., priority 2021, published 2025)", "key": {"[1]": {"system": "adolescents with Fontan physiology", "assay": "FUEL trial: peripheral arterial tonometry (EndoPAT), log-transformed reactive hyperemia index (lnRHI)", "type": "in vivo, human", "excerpt": "Pulse amplitude tonometry (PAT), a FDA-approved method for assessing vascular function, is increasingly being used as an alternative measure of endothelium-dependent dilation in response to reactive hyperemia and flow-mediated dilation (FMD). The PAT device records digital pulse wave amplitude (PWA) using fingertip plethysmography. PWA can be measured continuously during three phases: a quiet baseline period, 5-min forearm occlusion, and reactive hyperemia following cuff release. Unlike FMD, PAT testing is not dependent upon a highly skilled technician and post-test analysis is largely automated. […]\nThe primary outcome was the change in oxygen consumption at peak exercise (max or peak VO2) from baseline to the 26-week visit. […] Safety was monitored through adverse event reports, which were collected according to a pre-specified protocol of study coordinator outreach, and through ad hoc patient and family communication with members of the study team at each site.\nBaseline clinical testing completed before drug initiation included a blood draw to measure brain-type natriuretic peptide (BNP) level, a cardiopulmonary exercise test (CPET) using a standardized cycle ergometer ramp protocol, a standardized echocardiogram, and an assessment of peripheral vascular function using peripheral arterial tonometry (PAT) measured by finger cuff (EndoPAT; Itamar Medical, Israel). […]"}, "[2]": {"system": "adolescents with Fontan physiology", "details": "phase I/II study, cited from earlier work"}}, "note": "Entries after “also recorded” stand apart in the source; their conditions may differ.", "data": [{"smiles": "CCCOc1ccc(S(=O)(=O)NCCC2CCCN2C)cc1-c1nc2c(CCC)nn(C)c2c(=O)[nH]1", "note": "(stereo not shown) [Udenafil, udenafil]", "values": [{"measurement": "Change in lnRHI (PAT outcome), udenafil vs placebo", "setting": "[1]", "value": "no difference; also recorded: did not reveal a benefit"}, {"measurement": "Tolerability", "setting": "[2]; adolescents with Fontan physiology, all tested dosing regimens", "value": "demonstrated tolerability at all tested dosing regimens"}, {"measurement": "Average serum concentration, compared among dosing regimens", "setting": "[2]; 87.5 mg twice daily", "value": "highest average serum concentration"}, {"measurement": "Dose limiting adverse events", "setting": "[2]; 87.5 mg twice daily", "value": "not associated with dose limiting adverse events"}]}]}
